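Method: 48-hour compound exposure of cells in 96-well plates, five concentrations, linear interpolation of endpoints. GI50: concentration for 50% inhibition of growth. At the TGI there is no net growth.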
Experiments:
Test in all cases: growth of human tumour cells (NCI), 48 h
RXF 393 renal = tested on: RXF 393 renal
HL-60(TB) leukemia = tested on: HL-60(TB) leukemia
SK-MEL-28 melanoma = tested on: SK-MEL-28 melanoma
SN12C renal = tested on: SN12C renal
HT29 colon = tested on: HT29 colon
SF-539 CNS = tested on: SF-539 CNS
OVCAR-3 ovarian = tested on: OVCAR-3 ovarian
SNB-75 CNS = tested on: SNB-75 CNS
A498 renal = tested on: A498 renal

| SMILES | TGI (RXF 393 renal) | TGI (HL-60(TB) leukemia) | TGI (SK-MEL-28 melanoma) | TGI (SN12C renal) | TGI (HT29 colon) | TGI (SF-539 CNS) | TGI (OVCAR-3 ovarian) | TGI (SNB-75 CNS) | TGI (A498 renal) | GI50 (RXF 393 renal) | GI50 (SK-MEL-28 melanoma) | GI50 (SN12C renal) | GI50 (HT29 colon) | GI50 (SF-539 CNS) | GI50 (A498 renal) | GI50 (OVCAR-3 ovarian) | GI50 (SNB-75 CNS) |
| --- | --- | --- | --- | --- | --- | --- | --- | --- | --- | --- | --- | --- | --- | --- | --- | --- | --- |
| O=C(Nc1cc(Cl)ccc1Cl)c1cc2cccc(Br)c2oc1=O | > 100 µM | > 100 µM | > 100 µM | > 100 µM | > 100 µM | > 100 µM | > 100 µM | > 100 µM | – | – | – | – | – | – | – | – | – |
| O=C1C=CC(=O)C2C1Cc1ccccc1C2c1ccccc1 (centres undefined) | – | 53.1 µM | > 100 µM | > 100 µM | > 100 µM | > 100 µM | 88.3 µM | > 100 µM | 73.1 µM | – | – | – | – | – | – | – | – |
| NCCOCn1cc(Cc2cccc(OCc3ccccc3)c2)c(=O)[nH]c1=O | – | > 100 µM | > 100 µM | > 100 µM | > 100 µM | > 100 µM | > 100 µM | > 100 µM | – | – | – | – | – | – | – | – | – |
| COc1cc(O)c(C(=O)CC(C)=O)c(OC)c1 | > 100 µM | > 100 µM | > 100 µM | > 100 µM | > 100 µM | > 100 µM | > 100 µM | > 100 µM | – | – | – | – | – | – | – | – | – |
| O=S(=O)(c1ccccc1)c1nccs1 | – | > 100 µM | > 100 µM | > 100 µM | > 100 µM | > 100 µM | > 100 µM | > 100 µM | > 100 µM | – | – | – | – | – | – | – | – |
| Cc1cc(C)nc(NS(=O)(=O)c2ccc(Nc3c4ccccc4nc4c(C(=O)Nc5ccc(S(=O)(=O)Nc6cc(C)on6)cc5)ccc(Cl)c34)cc2)n1 | 32.7 µM | – | 69.4 µM | 63 µM | 47.8 µM | 53 µM | 31.3 µM | 84.1 µM | 38.3 µM | – | – | – | – | – | – | – | – |
| CCOP(=O)(OCC)/C(C#N)=C\c1ccsc1 | > 100 µM | – | > 100 µM | > 100 µM | > 100 µM | > 100 µM | > 100 µM | > 100 µM | – | – | – | – | – | – | – | – | – |
| Cc1c(NC(=O)CCl)c(=O)oc2c(C)c3occc(=O)c3cc12 | – | 21.9 µM | 39.2 µM | – | 35.3 µM | – | – | 8.47 µM | 31.7 µM | – | – | – | – | – | – | – | – |
| COc1ccc2c3c(c(C(=O)O)oc13)CCC2 | > 100 µM | > 100 µM | > 100 µM | > 100 µM | > 100 µM | > 100 µM | > 100 µM | > 100 µM | – | – | – | – | – | – | – | – | – |
| Cc1ccc(NC(=O)C(=O)C(C(=O)c2ccc3ccccc3c2)C2OC(=O)c3ccccc32)c(C)c1 (centres undefined) | 22.5 µM | – | 31.2 µM | 53.4 µM | 57.6 µM | 19.4 µM | 31.5 µM | 47.3 µM | 20 µM | – | – | – | – | – | – | – | – |
| CCCN(CCC)CCc1cc(C(C)=O)n(S(=O)(=O)c2ccc(C)cc2)c1 | – | – | > 100 µM | > 100 µM | > 100 µM | > 100 µM | > 100 µM | > 100 µM | > 100 µM | – | – | – | – | – | – | – | – |
| NC(=O)COc1c(Br)cc(Br)cc1Br | – | – | > 100 µM | > 100 µM | > 100 µM | > 100 µM | > 100 µM | > 100 µM | – | – | – | – | – | – | – | – | – |
| C=C1C2C[C@@H]3OC4CC5O[C@]6(CC5OC4C(C)C3OC(=O)CC3CC[C@@H]4OC5C7OC8C[C@](CCC9CC(=C)[C@H](CCC(C[C@H]1C)O2)O9)(OC7C4O3)O[C@@H]85)C[C@@H]1O[C@@]2(CC(C)[C@@H]3OC(CC(=O)CCO)C(O)C[C@@H]3O2)CC(C)[C@@H]1O6 (some centres undefined) | – | – | – | 0.206 µM | – | < 0.001 µM | < 0.001 µM | – | – | – | – | – | – | – | – | – | – |
| COC1=CC(=O)C(Br)=CC1=O | 32.3 µM | 23.6 µM | 34 µM | 33.3 µM | 35.6 µM | – | – | 29.1 µM | – | – | – | – | – | – | – | – | – |
| Cn1cnc([N+](=O)[O-])c1Sc1nnnn1C | – | – | 27.3 µM | 32.1 µM | 40.5 µM | 36.3 µM | 29.4 µM | 89.6 µM | > 100 µM | – | – | – | – | – | – | – | – |
| O=C(N/C(=C\c1c(O)ccc2ccccc12)c1nc2ccccc2[nH]1)c1ccccc1 | 47.7 µM | – | > 100 µM | > 100 µM | > 100 µM | > 100 µM | > 100 µM | 45.6 µM | > 100 µM | – | – | – | – | – | – | – | – |
| CCC[CH2][Sn]([CH2]CCC)([CH2]CCC)[O]C(=O)C(OC(C)=O)c1ccccc1 (centres undefined) | 0.302 µM | – | 0.274 µM | 0.275 µM | 0.26 µM | 0.306 µM | 0.274 µM | 0.424 µM | 0.305 µM | 0.155 µM | 0.142 µM | 0.144 µM | 0.127 µM | 0.165 µM | 0.154 µM | 0.137 µM | 0.134 µM |
| COc1cccc2c1C(=O)c1c(O)c3c(c(O)c1C2=O)C[C@@](O)(C(C)=O)C[C@@H]3OC1CC([N+]([O-])(Cc2ccccc2)Cc2ccccc2)C(O)C(C)O1 (some centres undefined) | 2.57 µM | – | – | 2.34 µM | 3.14 µM | 2.62 µM | 3.28 µM | 4.25 µM | 8.53 µM | – | – | – | – | – | – | – | – |
| COc1cc2c(c(O)c1C)C(=O)CC(c1ccccc1)O2 (centres undefined) | – | – | > 100 µM | > 100 µM | > 10 µM | > 100 µM | > 100 µM | > 100 µM | > 100 µM | – | – | – | – | – | – | – | – |
| CSC(=Nc1ccccc1Cl)NC(=O)c1ccc(Br)cc1 | > 100 µM | > 100 µM | 66.3 µM | > 100 µM | > 100 µM | > 100 µM | > 100 µM | – | – | – | – | – | – | – | – | – | – |

From PubChem BioAssay (NCI)
